According to publication PMC9787607, “A Novel Protocol for the Synthesis of 1,2,4-Oxadiazoles Active against Trypanosomatids and Drug-Resistant Leukemia Cell Lines” (Tropical Medicine and Infectious Disease, 2022):

How the values were obtained:
[1] = system: FEPS (K562/DNR); experiment: MTT cytotoxicity to MDR CML cell line FEPS; assay type: cell-based, human; settings: for EC50: Homo sapiens, K562, 72 h, MTT; for RR (relative resistance) FEPS: (EC50 MDR cells)/(EC50 parental cells), FEPS/K562
Method: (§1) The CML cell lines K562, Lucena-1 (K562/VCR), and FEPS (K562/DNR) were cultured in RPMI-1640 medium supplemented with 25 mM HEPES and 2 g L^−1 sodium bicarbonate adjusted to pH 7.4 with NaOH, 100 U penicillin and […] streptomycin. All media were supplemented with 10% FBS. Dr. Vivian M. Rumjanek (Instituto de Bioquímica Médica, UFRJ, Brazil) kindly donated Lucena-1 and FEPS cells. Briefly, K562 cells were exposed to increasing concentrations of the chemotherapeutic drugs vincristine sulfate (VCR) and daunorubicin hydrochloride (DNR) (both from Sigma-Aldrich), as described previously. Lucena-1 (K562/VCR) and FEPS (K562/DNR) cells were cultured in the presence of either 60 nM VCR or 500 nM DNR to maintain the MDR phenotypes. For subcultures, cells were harvested every three days followed by washing with cold FBS, and a final concentration of 2 × 10^4 cells mL^−1 was maintained at 37 °C in 5% CO2.
(§2) Cell viability was determined by the 3-(4,5-dimethylthiazol-2-yl)-2,5-diphenyltetrazolium (MTT) colorimetric assay. CML cells (2 × 10^4 cells·mL^−1) were incubated for 72 h at 37 °C, followed by treatment with compounds at a range of concentrations (100–1 μM). Negative controls were prepared with 0.5% DMSO. An MTT salt solution was added to each well to a final concentration of 0.5 g·L^−1, and plates were incubated at 37 °C in 5% CO2 for 3 h. After centrifugation, 200 μL DMSO was added to dissolve the dark-blue formazan crystals formed by MTT reduction. Absorbance was measured on a microplate reader at 570 nm, which is directly proportional to formazan contents and indicative of living cells.
(§3) The percent cell or parasite viability was calculated by the formula: % viability = [(A − P)/(N − P)] × 100, A = absorbance of specific well, P = positive control, N = negative control. Determination of half-maximal effective concentrations (EC50), calculated by logarithmic regression, and significance analysis (p < 0.05), using ANOVA and Dunnett’s test, by GraphPad Prism 7.0 software. The results are expressed as the mean and standard deviation (SD) of three independent experiments.

[2] = system: L. amazonensis promastigotes; experiment: Anti-L. amazonensis promastigote assessment (MTT); assay type: cell-based; settings: Leishmania amazonensis; 48 h, MTT; read-out: EC50 L. amazonensis promastigotes
Method: Promastigotes of L. amazonensis (MHOM/BR/75/Josefa) were cultured in Schneider’s insect medium (SIM) with 10% FBS. Parasites were harvested at the stationary growth phase for assessment against promastigotes and 24 h after cultures reached the stationary growth phase for infection assays. […]. Complete SIM media and amphotericin B (AmB) at 10 µM were used as negative and positive controls, respectively. A vehicle control containing SIM with 10% SFB media and 0.3% DMSO was maintained for comparison. The final volume of the experiment was 100 µL. After incubation for 48 h at 27 °C, MTT salt solution in PBS was added (3.0 mM, 20 µL per well). After incubation for 2 h at 27 °C, the MTT formazan was dissolved by adding 120 µL of solubilizing buffer (50% isopropanol, 40% acetate buffer pH 5.4, 10% Triton-X). Absorbance was measured using a microplate reader at 570 nm.
as §3

[3] = system: T. cruzi amastigotes (Tulahuen C2C4 LacZ strain); experiment: microbe, parasite or virus in culture; assay type: cell-based, Trypanosoma cruzi; settings: Trypanosoma cruzi, TULAHUEN, LLC-MK2, 120 h, screening at 50 μM, 120 h, compared with untreated controls
Method: To a monolayer of 1.0 × 10^7 LLC-MK2 cells in a 150 cm^2 culture flask were added 5.0 × 10^7 trypomastigotes of T. cruzi expressing the […] (Tulahuen C2C4 LacZ) in complete DMEM with 2.5% FBS. The infection was allowed to occur for 24 h, the supernatant was removed, and the cell monolayer was washed with PBS. Complete DMEM with 2.5% FBS was renewed every 2 days up to the sixth day after infection. Trypomastigote forms were collected daily from the supernatant between days 7 and 12 after infection, enriched by differential centrifugation (1500× g for 10 min, 5580× g for 20 min), and resuspended in complete DMEM with 5% FBS. Parasite density was determined by counting the mobile trypomastigotes on Neubauer chambers before use.
. The medium was renewed, and trypomastigote forms of T. cruzi (Tulahuen C2C4 LacZ strain, 2.0 × 10^5 parasites per well) were added. After incubation for 24 h at 37 °C in 5% CO2, the cell monolayer was washed with PBS to remove noninternalized parasites. DMEM without phenol red and 5% FBS was added, and infected cells were treated with compounds at a range of concentrations in triplicate (50 μM or 100–1 μM). Untreated infected cells and noninfected LLC-MK2 cells were used as negative and positive controls, respectively. Vehicle control containing DMEM without phenol red and 0.3% DMSO was maintained for comparison. After incubation for 120 h at 37 °C in 5% CO2, a solution containing […] and 0.8% IGEPAL CA-630 in PBS (30 µL per well), followed by further incubation for 2 h at 37 °C in 5% CO2. Absorbance was measured using a microplate reader at 570 nm.
as §3

[4] = Cytotoxicity to LLC-MK2 host cells (MTT); assay type: cell-based; settings: rhesus monkey, screening at 50 μM, 120 h
Method: LLC-MK2 kidney fibroblasts (ATCC) and RAW 264.7 macrophages (ATCC) were cultivated in culture flasks in complete DMEM with 5% FBS at 37 °C in 5% CO2. The LLC-MK2 cell monolayer was detached by treatment with trypsin-EDTA 0.05% for 5 min at 37 °C. The RAW cell monolayer was detached mechanically. In both cases, the cells were centrifuged at 480× g for 6 min and resuspended in complete DMEM with 5% FBS, and the cell density was determined by counting with trypan-blue dye exclusion on Neubauer chambers before use.
LLC-MK2 cells were seeded in a 96-well microplate (1.0 × 10^4 cells per well) in complete DMEM with 5% FBS (120 µL per well). After incubation for 24 h at 37 °C in 5% CO2, the medium was renewed, and compounds were added at a range of concentrations in triplicate (50 μM or 100–1 μM). Untreated cells and cells treated with DMEM and 10% DMSO were used as negative and positive controls, respectively. Vehicle control containing DMEM and 0.3% DMSO was maintained for comparison. After incubation for 120 h at 37 °C in 5% CO2, the medium was renewed, and MTT salt solution in PBS was added (3.0 mM, 20 µL per well). After incubation for 2 h at 37 °C in 5% CO2, the supernatant was removed, and MTT formazan was dissolved in DMSO (150 µL per well). Absorbance was measured using a microplate reader at 570 nm.
as §3

[5] = system: Lucena-1 (K562/VCR); experiment: cells; assay type: cell-based, human; settings: for EC50: Homo sapiens, Lucena 1, 72 h, read-out: EC50 Lucena-1; for RR (relative resistance) Lucena-1: (EC50 MDR cells)/(EC50 parental cells), Lucena-1/K562
Method: as §1, §2, §3

[6] = Cytotoxicity to BALB/c mouse total splenocytes (MTT); assay type: cell-based; settings: male, total splenocytes (primary), 100 μM, 48 h, compared to the untreated control (Table S1)
Method: BALB/c mouse total splenocytes were harvested from male mice between 6–8 weeks old. After euthanasia, the spleens were removed and macerated in DMEM. After centrifugation, the cells were treated with hemolytic ACK buffer at 37 °C for 5 min. […] After incubation for 48 h at 37 °C in 5% CO2, cell viability was determined after the addition of 20 µL per well of a solution containing MTT salt (3.0 mM) and phenazine metasulphate (0.72 mM). After further incubation for 1 h at 37 °C, the medium was removed, and DMSO was added to dissolve the dark-blue formazan crystals formed by MTT reduction. Absorbance was measured on a microplate reader at 570 nm.
as §3

[7] = system: K562; experiment: MTT cytotoxicity to CML cell line K562; assay type: cell-based; settings: Homo sapiens, 72 h
Method: as §1, §2, §3

[8] = LLC-MK2 cells (kidney fibroblasts)

| SMILES | EC50 [1] [µM] | EC50 [2] [µM] | viability at 50 µM [3] [%] | viability at 120 h, 50 µM [4, 8] [%] | EC50 [5] [µM] | viability at 48 h, 100 µM [6] [%] | EC50 [7] [µM] | melting point [°C] | RR (relative resistance) FEPS [1] | RR (relative resistance) Lucena-1 [5] | viability at 120 h, 50 µM [4] [%] |
| --- | --- | --- | --- | --- | --- | --- | --- | --- | --- | --- | --- |
| C(=C\c1nc(-c2ccccc2)no1)/c1ccccc1 [Compound 9, (E)-3-phenyl-5-[2-phenylvinyl]-1,2,4-oxadiazole] | > 100 | 74.5 ± 4.9 | 87 ± 4.9 | 87.2 ± 4 | > 100 | 102 ± 7.4 | > 100 | – | – | – | – |
| COc1cccc(/C=C/c2nc(-c3ccccc3)no2)c1 [Compound 10, (E)-3-phenyl-5-[2-(3-methoxyphenyl)vinyl]-1,2,4-oxadiazole] | > 100 | 50.8 ± 6.3 | 77.7 ± 6.3 | 86.6 ± 3.6 | > 100 | 85.4 ± 4 | > 100 | 88 to 90 | – | – | – |
| COc1ccc(/C=C/c2nc(-c3ccccc3)no2)cc1 [Compound 11, (E)-3-phenyl-5-[2-(4-methoxyphenyl)vinyl]-1,2,4-oxadiazole] | 58.8 ± 6.1 | > 100 | 86.2 ± 5.3 | 77.4 ± 4 | > 100 | 84.4 ± 2.9 | > 100 | 132 to 135 | <0.59 | – | – |
| C(=C\c1nc(-c2ccccc2)no1)/c1ccc2c(c1)OCO2 [Compound 13, (E)-3-phenyl-5-[2-(3,4-methylenedioxy-phenyl)vinyl]-1,2,4-oxadiazole] | 68.5 ± 8.7 | > 100 | 72 ± 3.7 | 75.9 ± 1.3 | 46.5 ± 1.9 | 98.8 ± 5.1 | 92.3 ± 4.2 | 157 to 159 | 0.74 | 0.50 | – |
| C(=C\c1nc(-c2ccccc2)no1)/c1ccc2c(c1)OCCO2 [Compound 14, (E)-3-phenyl-5-[2-(3,4-ethylenedioxy-phenyl)vinyl]-1,2,4-oxadiazole] | 41.1 ± 4.9 | 92.5 ± 3.8 | 60.5 ± 3.8 | 84.5 ± 4.6 | 64 ± 3.2 | 93.6 ± 5.9 | > 100 | 143 to 145 | <0.41 | <0.64 | – |
| C(=C\c1nc(-c2ccccc2)no1)/c1ccco1 [Compound 16, (E)-3-phenyl-5-[2-fur-2-yl-vinyl]-1,2,4-oxadiazole] | 54.7 ± 1.7 | 47.1 ± 3.7 | 83 ± 3.7 | 89.2 ± 1.4 | 65 ± 9.6 | 53.5 ± 5.2 | 52.8 ± 17.7 | 83 to 85 | 1.03 | 1.23 | – |
| C(=C\c1cccs1)/c1nc(-c2ccccc2)no1 [Compound 17, (E)-3-phenyl-5-[2-thiophen-2-yl-vinyl]-1,2,4-oxadiazole] | 55.7 ± 17.2 | 77.6 ± 6.3 | 69.6 ± 6.3 | – | 71.9 ± 0.6 | 99 ± 8.4 | > 100 | 93 to 95 | <0.56 | <0.72 | 86.2 ± 7.1 |
| Fc1ccc(/C=C/c2nc(-c3ccccc3)no2)cc1 [Compound 18, (E)-3-phenyl-5-[2-(4-fluorophenyl)vinyl]-1,2,4-oxadiazole] | 66.7 ± 9.6 | > 100 | 82.8 ± 4.7 | 90.7 ± 4.3 | 59.9 ± 12.2 | 102 ± 11.5 | > 100 | – | <0.67 | <0.59 | – |
| Clc1ccc(/C=C/c2nc(-c3ccccc3)no2)cc1 [Compound 19, (E)-3-phenyl-5-[2-(4-chlorophenyl)vinyl]-1,2,4-oxadiazole] | > 100 | > 100 | 83.4 ± 5.9 | 77.8 ± 0.9 | 43.4 ± 3.4 | 90.5 ± 5.3 | 47.1 ± 1.2 | – | >2.12 | 0.92 | – |
| O=[N+]([O-])c1ccc(/C=C/c2nc(-c3ccccc3)no2)cc1 [Compound 20, (E)-3-phenyl-5-[2-(4-nitrophenyl)vinyl]-1,2,4-oxadiazole] | 46.4 ± 4.9 | > 100 | 74.5 ± 5.4 | 78.2 ± 2.1 | 45.7 ± 4.3 | 77.8 ± 4.2 | 34.4 ± 7.4 | 205 to 208 | 1.35 | 1.33 | – |
